Test results published in patent US20260055142A1, “PHARMACEUTICAL USE OF POLYPEPTIDE IN PREPARATION OF DRUGS FOR TREATING AND/OR PREVENTING DIABETES AND OBESITY AND RELATED DISEASES THEREOF” (GUANGDONG RAYNOVENT BIOTECH CO., LTD., priority 2022, published 2026).

Experiments:
[1] = system: Db/db (Lepr leptin receptor deficient) mice; assay: In vivo efficacy test in mouse model of diabetes; details: for Change rate of glycosylated hemoglobin: “−” indicates decrease
Excerpt: To study the efficacy of the series of polypeptides of the present application in animal model of diabetes, and to compare them with the marketed counterpart Tirzepatide as reported in the literature (MOLECULAR METABOLISM, 18 (2018), P3-14). The glucose-lowering effect of Tirzepatide is much better than that of Semaglutide, and thus Semaglutide was not included in this experiment for comparison. Db/db (Lepr leptin receptor deficient) mice have typical clinical symptoms of diabetes such as extreme obesity, hyperphagia, thirst, and polyuria, and they are ideal animal model of type II diabetes. […] The test animals were divided into groups. An appropriate amount of the test samples were added into 20 mM sodium citrate buffer following the experimental protocol, and the mixture was vortexed at room temperature to obtain clear solutions of varying concentrations. The obtained solutions were frozen for further use. During the experiment, animals in the normal control group, the model group and the dosing group were administered by means of subcutaneous injection on the outer thighs. The dosing regimen was once a day (Qd), for a total period of 4 weeks. Details were as follows: [table] […] The fasting blood glucose level and the change rate of glycosylated hemoglobin level in the test mice were dynamically monitored during the experiment.

[2] = system: mouse model of obesity; assay: In vivo efficacy test in mouse model of obesity; details: high-fat diet obese mice, SC Q3d for 22 days; 10 nmol/kg (Semaglutide 30 nmol/kg)
Excerpt: To study the weight-lowering effect of the series of polypeptides of the present application in animal model of obesity, and to compare them with the marketed counterparts, Tirzepatide and Semaglutide. Mouse model of obesity was obtained by induction with high-fat diet following the reference literature (MOLECULAR METABOLISM, 18 (2018), P3-14). The specific experimental procedure was as follows: the experimental mice were fed with high-fat diet (Research Diet D12492) for 13 weeks. […] These findings indicated the successful establishment of animal models. The test animals were divided into groups. An appropriate amount of the test samples were added into 20 mM sodium citrate buffer following the experimental protocol, and the mixture was vortexed at room temperature to obtain clear solutions of varying concentrations. The obtained solutions were frozen for further use. During the experiment, animals in the model group and the dosing group were administered by means of subcutaneous injection on the outer thighs. The dosing regimen was once every 3 days […]), for a total period of 22 days. Details were as follows. [table] […] After completing the entire dosing test cycle, the test mice were weighed, and the results were shown below.

[3] = biological target: T1, GLP-1R (Homo sapiens, UniProt P43220); assay: In vitro GLP-1R agonistic activity test (cAMP kit); assay type: cell-based; details: HEK293 host cell; without 1% HSA
T1 construct: host or cells: HEK293
Procedure: The cell lines were constructed by Wuxi […] (Shanghai) Co., Ltd. See details in Table 1 below. [table] The test compounds were diluted at a 4-fold dilution factor in 10 points, starting from an initial concentration of 30 μM. […]

[4] = biological target: T2, GIPR (Homo sapiens, UniProt P48546); assay: In vitro GIPR agonistic activity test (cAMP kit); assay type: cell-based; details: CHO host cell; without 1% HSA
T2 construct: host or cells: CHO
T2 sequence (P48546 22-466): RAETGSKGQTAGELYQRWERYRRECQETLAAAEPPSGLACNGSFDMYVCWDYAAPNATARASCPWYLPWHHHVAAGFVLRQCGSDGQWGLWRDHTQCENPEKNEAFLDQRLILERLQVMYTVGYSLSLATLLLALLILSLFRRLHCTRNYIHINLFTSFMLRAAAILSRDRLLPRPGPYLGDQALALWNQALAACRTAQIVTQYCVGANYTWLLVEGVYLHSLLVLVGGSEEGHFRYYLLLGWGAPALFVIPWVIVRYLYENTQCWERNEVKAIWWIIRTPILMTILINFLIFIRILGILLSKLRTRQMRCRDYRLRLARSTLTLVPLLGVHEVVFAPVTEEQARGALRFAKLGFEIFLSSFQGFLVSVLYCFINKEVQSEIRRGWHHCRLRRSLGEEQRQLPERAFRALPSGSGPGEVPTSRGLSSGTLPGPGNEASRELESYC
Procedure: The cell lines were constructed by Wuxi […] (Shanghai) Co., Ltd. See details in Table 1 below. […] The test compounds were diluted at a 4-fold dilution factor in 10 points, starting from an initial concentration of 30 μM.

T1 sequence (P43220 24-463, species assumed): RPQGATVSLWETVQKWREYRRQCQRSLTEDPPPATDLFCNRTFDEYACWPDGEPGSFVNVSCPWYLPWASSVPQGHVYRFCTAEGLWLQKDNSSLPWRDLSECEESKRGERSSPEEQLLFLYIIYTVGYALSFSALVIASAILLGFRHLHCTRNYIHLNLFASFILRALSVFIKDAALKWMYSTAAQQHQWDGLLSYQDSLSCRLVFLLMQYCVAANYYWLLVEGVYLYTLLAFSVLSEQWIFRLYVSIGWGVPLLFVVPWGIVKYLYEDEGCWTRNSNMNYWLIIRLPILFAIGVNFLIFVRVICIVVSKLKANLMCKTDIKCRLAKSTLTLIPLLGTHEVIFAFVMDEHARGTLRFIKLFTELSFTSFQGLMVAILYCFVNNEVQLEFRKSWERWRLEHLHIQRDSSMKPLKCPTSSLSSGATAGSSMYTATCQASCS

Row | EC50 [3] [pM] | EC50 [4] [pM] | Compound | Fasting blood glucose ([1]; Day 0, 5 nmol/kg SC Qd) [mmol/L] | Fasting blood glucose ([1]; Day 7, 5 nmol/kg SC Qd) [mmol/L] | Fasting blood glucose ([1]; Day 14, 5 nmol/kg SC Qd) [mmol/L] | Change rate of glycosylated hemoglobin ([1]; Day 14, 5 nmol/kg SC Qd) [%] | Fasting blood glucose ([1]; Day 21, 5 nmol/kg SC Qd) [mmol/L] | Change rate of glycosylated hemoglobin ([1]; Day 21, 5 nmol/kg SC Qd) [%] | Change rate of glycosylated hemoglobin ([1]; Day 29, 5 nmol/kg SC Qd) [%] | Weight change rate [2] [%]
1 | – | – | Tirzepatide | 26.7 ± 1.4 | 11.6 ± 1.4 | 12.6 ± 1.6 | −15.9 ± 5.4 | 14.0 ± 1.4 | −14.3 ± 4.9 | −10.2 ± 5.7 | −10.20
2 | 26 | 400 | CC[C@H](C)[C@H](NC(=O)[C@H](CC(C)C)NC(=O)[C@H](Cc1c[nH]c2ccccc12)NC(=O)[C@H](C)NC(=O)[C@@H](NC(=O)[C@H](Cc1ccccc1)NC(=O)[C@H](C)NC(=O)[C@@H]1CCCCNC(=O)CN(C(=O)COCCOCCNC(=O)COCCOCCNC(=O)CC[C@H](NC(=O)CCCCCCCCCCCCCCCCCCC(=O)O)C(=O)O)CC(=O)NCCCC[C@H](NC(=O)[C@H](CCCCN)NC(=O)[C@H](CC(=O)O)NC(=O)[C@H](CC(C)C)NC(=O)C(C)(C)NC(=O)[C@@H](NC(=O)[C@H](CO)NC(=O)[C@H](Cc2ccc(O)cc2)NC(=O)[C@H](CC(=O)O)NC(=O)[C@H](CO)NC(=O)[C@@H](NC(=O)[C@H](Cc2ccccc2)NC(=O)[C@@H](NC(=O)CNC(=O)[C@H](CCC(=O)O)NC(=O)C(C)(C)NC(=O)[C@@H](N)Cc2ccc(O)cc2)[C@@H](C)O)[C@@H](C)O)[C@@H](C)CC)C(=O)N[C@@H](C)C(=O)N[C@@H](CCC(N)=O)C(=O)N1)C(C)C)C(=O)N[C@@H](C)C(=O)NCC(=O)NCC(=O)N1CCC[C@H]1C(=O)N[C@@H](CO)C(=O)N[C@@H](CO)C(=O)NCC(=O)N[C@@H](C)C(=O)N1CCC[C@H]1C(=O)N1CCC[C@H]1C(=O)N1CCC[C@H]1C(=O)N[C@@H](CO)C(N)=O [WX-007] | – | – | – | – | – | – | – | –
